# Laboratory results published in US11000033B2, “Ketone or oxime compound, and herbicide” (NISSAN CHEMICAL CORPORATION, priority 2014, dated 2021).
# What was measured:
# Type in all cases: in vivo
# [1] = tested on: Lolium multiflorum Lam.; assay: Test Example 5: herbicidal effect by foliage application, plastic box (symbol K); settings: 320 g/ha, 3 weeks after application
# Summary of the method: (§1)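 Emulsion formulation, diluted with water to the intended rate, was applied uniformly to leaves by small sprayer. Recipients were 14-day greenhouse-grown seedlings (25° C. to 30° C.). Assessment followed at 3 weeks.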
# [2] = tested on: Leptochloa chinensis; assay: Test Example 3: herbicidal effect by foliage application, Wagner pot (symbol D); settings: application herbicide amount 320 g/ha
# Summary of the method: (§2)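 Seeds sown in alluvial soil kept under 0.1–0.5 cm water, greenhouse 25–30 °C; 14 d growth. Leaves treated by small sprayer with water-diluted emulsion at a predetermined rate. Effect graded by set scale, 3 weeks.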
# [3] = tested on: rice plant; assay: Test Example 5: effect on crop by foliage application, plastic box (symbol b); settings: 320 g/ha, 3 weeks after application
# Summary of the method: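 A greenhouse held between 25° C. and 30° C. was used to grow plants sown spot-wise, beneath ~1.5 cm of soil, in boxes of sterilized diluvial soil.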
# [4] = tested on: Echinochloa crus-galli var. crus-galli; assay: Test Example 3: herbicidal effect by foliage application, Wagner pot (symbol H); settings: application herbicide amount 320 g/ha
# Summary of the method: as §2
# [5] = tested on: Stellaria media; assay: Test Example 5: herbicidal effect by foliage application, plastic box (symbol P); settings: 320 g/ha, 3 weeks after application
# Summary of the method: as §1
# [6] = tested on: Alopecurus myosuroides; assay: Test Example 4: herbicidal effect by soil treatment (symbol J)
# Summary of the method: (§3)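 Seeds were sown in sterilized diluvial soil, covered with about 1.5 cm of soil, and the soil surface was sprayed with a water-diluted emulsion of the compound at a predetermined rate. Plants grew in a greenhouse at 25° C. to 30° C.; effects were scored visually 3 weeks after application.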
# [7] = tested on: Galium spurium; assay: Test Example 5: herbicidal effect by foliage application, plastic box (symbol Q); settings: 320 g/ha, 3 weeks after application
# Summary of the method: as §1
# [8] = tested on: Digitaria ciliaris; assay: Test Example 4: herbicidal effect by soil treatment (symbol F)
# Summary of the method: as §3
# [9] = tested on: Setaria viridis; assay: Test Example 4: herbicidal effect by soil treatment (symbol G)
# Summary of the method: as §3
# [10] = tested on: Setaria viridis; assay: Test Example 5: herbicidal effect by foliage application, plastic box (symbol G); settings: 320 g/ha, 3 weeks after application
# Summary of the method: as §1
# [11] = tested on: Chenopodium album; assay: Test Example 5: herbicidal effect by foliage application, plastic box (symbol O); settings: 320 g/ha, 3 weeks after application
# Summary of the method: as §1
# [12] = tested on: Digitaria ciliaris; assay: Test Example 5: herbicidal effect by foliage application, plastic box (symbol F); settings: 320 g/ha, 3 weeks after application
# Summary of the method: as §1
# [13] = tested on: Abutilon theophrasti; assay: Test Example 5: herbicidal effect by foliage application, plastic box (symbol M); settings: 320 g/ha, 3 weeks after application
# Summary of the method: as §1
# [14] = tested on: rapeseed; assay: Test Example 4: effect on crop by soil treatment (symbol g); settings: for g: rapeseed, effect grade on crop: 320 g/ha
# Summary of the method: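 Soil-treatment setup: crop and weed seeds were spot-sown into sterilized diluvial soil, then buried beneath approximately 1.5 cm of it, and the boxes were housed in a 25–30° C. greenhouse.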
# [15] = tested on: Amaranthus retroflexus; assay: Test Example 4: herbicidal effect by soil treatment (symbol N)
# Summary of the method: as §3
# [16] = tested on: Avena fatua; assay: Test Example 4: herbicidal effect by soil treatment (symbol I)
# Summary of the method: as §3
# [17] = tested on: Apera spica-venti; assay: Test Example 5: herbicidal effect by foliage application, plastic box (symbol L); settings: 320 g/ha, 3 weeks after application
# Summary of the method: as §1
# [18] = tested on: Echinochloa oryzacola Vasing.; assay: Test Example 1: herbicidal activity, application before weed generation in submerged conditions (symbol A); settings: application herbicide amount 320 g/ha
# Summary of the method: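 Mixed weed seeds sown in alluvial soil under 4 cm of water, with rice seedlings at the 2.5-leaf stage added. Same-day treatment: emulsion diluted to a set herbicide amount onto the water. Three weeks at 25–30 °C, then graded on a six-step scale.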
# [19] = application herbicide amount 320 g/ha
Compound,"K: Lolium multiflorum Lam., herbicidal effect (criteria 0-5) [1]","herbicidal effect on D (Leptochloa chinensis), grade 0-5 [2]","b: directly sowed rice plant, effect on crop (criteria 0-5) [3]","herbicidal effect on H (Echinochloa crus-galli var. crus-galli), grade 0-5 [4]","P: Stellaria media, herbicidal effect (criteria 0-5) [5]","J: Alopecurus myosuroides, herbicidal effect grade ([6]; 320 g/ha)","Q: Galium spurium, herbicidal effect (criteria 0-5) [7]","F: Digitaria ciliaris, herbicidal effect grade ([8]; 320 g/ha)","G: Setaria viridis, herbicidal effect grade ([9]; 320 g/ha)","G: Setaria viridis, herbicidal effect (criteria 0-5) [10]","O: Chenopodium album, herbicidal effect (criteria 0-5) [11]","F: Digitaria ciliaris, herbicidal effect (criteria 0-5) [12]","M: Abutilon theophrasti, herbicidal effect (criteria 0-5) [13]","g: rapeseed, effect grade on crop [14]","N: Amaranthus retroflexus, herbicidal effect grade ([15]; 320 g/ha)","I: Avena fatua, herbicidal effect grade ([16]; 320 g/ha)","L: Apera spica-venti, herbicidal effect (criteria 0-5) [17]","Herbicidal effect grade, A: Echinochloa oryzacola Vasing. [18]","K: Lolium multiflorum Lam., herbicidal effect grade [1]","b: directly sowed rice plant, effect on crop grade [3]",further results
CON=C(C)CC1CC(OC(=O)c2ccccc2OC(F)(F)F)=C(c2c(C)cc(C)cc2C)C1=O (stereo not drawn) [1-155],5 (Herbicidal ratio of 90% or more (almost completely withered)),5 (Herbicidal ratio of 90% or more (almost completely withered)),5 (Herbicidal ratio of 90% or more (almost completely withered)),5 (Herbicidal ratio of 90% or more (almost completely withered)),2 (Herbicidal ratio of 20% or higher and lower than 40%),5 (Herbicidal ratio of 90% or more (almost completely withered)),0 (Herbicidal ratio of 5% or lower (almost no effect)),5 (Herbicidal ratio of 90% or more (almost completely withered)),5 (Herbicidal ratio of 90% or more (almost completely withered)),5 (Herbicidal ratio of 90% or more (almost completely withered)),0 (Herbicidal ratio of 5% or lower (almost no effect)),5 (Herbicidal ratio of 90% or more (almost completely withered)),4 (Herbicidal ratio of 70% or higher and lower than 90%),4 (Herbicidal ratio of 70% or higher and lower than 90%),5 (Herbicidal ratio of 90% or more (almost completely withered)),4 (Herbicidal ratio of 70% or higher and lower than 90%),5 (Herbicidal ratio of 90% or more (almost completely withered)),5 (Herbicidal ratio of 90% or more (almost completely withered)),–,–,–
COC(=O)C(C(C)=O)C1CC(O)=C(c2c(C)cc(C)cc2C)C1=O (stereo not drawn) [2-003],–,5 (Herbicidal ratio of 90% or more (almost completely withered)),–,5 (Herbicidal ratio of 90% or more (almost completely withered)),–,4 (Herbicidal ratio of 70% or higher and lower than 90%),–,4 (Herbicidal ratio of 70% or higher and lower than 90%),0 (Herbicidal ratio of 5% or lower (almost no effect)),–,–,–,–,0 (Herbicidal ratio of 5% or lower (almost no effect)),0 (Herbicidal ratio of 5% or lower (almost no effect)),0 (Herbicidal ratio of 5% or lower (almost no effect)),–,0 (Herbicidal ratio of 5% or lower (almost no effect)),5 (Herbicidal ratio of 90% or more (almost completely withered)),5 (Herbicidal ratio of 90% or more (almost completely withered)),"P: Stellaria media, herbicidal effect grade [5]: 0 (Herbicidal ratio of 5% or lower (almost no effect)); Q: Galium spurium, herbicidal effect grade [7]: 0 (Herbicidal ratio of 5% or lower (almost no effect)); G: Setaria viridis, herbicidal effect grade [10]: 5 (Herbicidal ratio of 90% or more (almost completely withered)); O: Chenopodium album, herbicidal effect grade [11]: 0 (Herbicidal ratio of 5% or lower (almost no effect)); F: Digitaria ciliaris, herbicidal effect grade [12]: 4 (Herbicidal ratio of 70% or higher and lower than 90%); M: Abutilon theophrasti, herbicidal effect grade [13]: 1 (Herbicidal ratio of 5% or higher and lower than 20%); L: Apera spica-venti, herbicidal effect grade [17]: 4 (Herbicidal ratio of 70% or higher and lower than 90%)"
CON=C(C)CC1CC(OC(=O)C(C)(C)c2ccc(Cl)cc2)=C(c2c(C)cc(C)cc2C)C1=O (stereo not drawn) [1-148],5 (Herbicidal ratio of 90% or more (almost completely withered)),5 (Herbicidal ratio of 90% or more (almost completely withered)),5 (Herbicidal ratio of 90% or more (almost completely withered)),5 (Herbicidal ratio of 90% or more (almost completely withered)),3 (Herbicidal ratio of 40% or higher and lower than 70%),5 (Herbicidal ratio of 90% or more (almost completely withered)),3 (Herbicidal ratio of 40% or higher and lower than 70%),5 (Herbicidal ratio of 90% or more (almost completely withered)),5 (Herbicidal ratio of 90% or more (almost completely withered)),5 (Herbicidal ratio of 90% or more (almost completely withered)),1 (Herbicidal ratio of 5% or higher and lower than 20%),5 (Herbicidal ratio of 90% or more (almost completely withered)),4 (Herbicidal ratio of 70% or higher and lower than 90%),4 (Herbicidal ratio of 70% or higher and lower than 90%),2 (Herbicidal ratio of 20% or higher and lower than 40%),0 (Herbicidal ratio of 5% or lower (almost no effect)),5 (Herbicidal ratio of 90% or more (almost completely withered)),5 (Herbicidal ratio of 90% or more (almost completely withered)),–,–,–
CON=C(C)CC1CC(O)=C(c2c(C)cc(-c3ccccc3)cc2C)C1=O (stereo not drawn) [6-015],–,5 (Herbicidal ratio of 90% or more (almost completely withered)),–,5 (Herbicidal ratio of 90% or more (almost completely withered)),–,–,–,–,–,–,–,–,–,–,–,–,–,5 (Herbicidal ratio of 90% or more (almost completely withered)),5 (Herbicidal ratio of 90% or more (almost completely withered)),5 (Herbicidal ratio of 90% or more (almost completely withered)),"P: Stellaria media, herbicidal effect grade [5]: 3 (Herbicidal ratio of 40% or higher and lower than 70%); J: Alopecurus myosuroides, herbicidal effect grade [6, 19]: 5 (Herbicidal ratio of 90% or more (almost completely withered)); Q: Galium spurium, herbicidal effect grade [7]: 2 (Herbicidal ratio of 20% or higher and lower than 40%); F: Digitaria ciliaris, herbicidal effect grade [8, 19]: 5 (Herbicidal ratio of 90% or more (almost completely withered)); G: Setaria viridis, herbicidal effect grade [9, 19]: 5 (Herbicidal ratio of 90% or more (almost completely withered)); G: Setaria viridis, herbicidal effect grade [10]: 5 (Herbicidal ratio of 90% or more (almost completely withered)); O: Chenopodium album, herbicidal effect grade [11]: 4 (Herbicidal ratio of 70% or higher and lower than 90%); F: Digitaria ciliaris, herbicidal effect grade [12]: 5 (Herbicidal ratio of 90% or more (almost completely withered)); M: Abutilon theophrasti, herbicidal effect grade [13]: 2 (Herbicidal ratio of 20% or higher and lower than 40%); g: rapeseed, effect on crop grade [14, 19]: 4 (Herbicidal ratio of 70% or higher and lower than 90%); N: Amaranthus retroflexus, herbicidal effect grade [15, 19]: 5 (Herbicidal ratio of 90% or more (almost completely withered)); I: Avena fatua, herbicidal effect grade [16, 19]: 0 (Herbicidal ratio of 5% or lower (almost no effect)); L: Apera spica-venti, herbicidal effect grade [17]: 5 (Herbicidal ratio of 90% or more (almost completely withered))"
